In PMC12302228 (RSC Medicinal Chemistry, 2025):

Experiments:
[1] = tested on: MCF7; experiment: Antiproliferative activity, SRB assay; type: cell-based, human; conditions: read-out: IC50 MCF7; 48 h of treatment; mean ± SEM
[2] = tested on: M21; experiment: Antiproliferative activity, SRB assay; type: cell-based, human; conditions: read-out: IC50 M21; 48 h of treatment; mean ± SEM
[3] = tested on: HT-29; experiment: Antiproliferative activity, SRB assay; type: cell-based, human; conditions: read-out: IC50 HT-29; 48 h of treatment; mean ± SEM
[4] = tested on: HT-1080; experiment: Antiproliferative activity, SRB assay; type: cell-based, human; conditions: read-out: IC50 HT-1080; 48 h of treatment; mean ± SEM
[5] = tested on: MOLM-13; experiment: Antiproliferative activity, MTT assay; type: cell-based, human; conditions: read-out: IC50 MOLM-13; 48 h of treatment; mean ± SEM
[6] = tested on: THP-1; experiment: Antiproliferative activity, MTT assay; type: cell-based, human; conditions: read-out: IC50 THP-1; 48 h of treatment; mean ± SEM
[7] = tested on: HL-60; experiment: Antiproliferative activity, MTT assay; type: cell-based, human; conditions: read-out: IC50 HL-60; 48 h of treatment; mean ± SEM
[8] = physchem; conditions: ultrapure water, 37 °C, kinetic from dmso stock

Row | Compound | IC50 [1] | IC50 [3] | IC50 [4] | IC50 [5] | IC50 [6] | IC50 [7] | solubility at 24 h [8] | IC50 [2]
1 | CCCNC(=O)Nc1ccc(S(=O)(=O)Oc2cccnc2C)cc1.Cl [Compound 26, 2-Methylpyridin-3-yl 4-(3-propylureido)benzenesulfonate hydrochloride] | 33 ± 4 µM | > 100 µM | 15 ± 2 µM | 14 ± 2 µM | 6 ± 2 µM | 15 ± 3 µM | 151 ± 1 µg/mL | > 100 µM
2 | Cl.O=C(NCCCl)Nc1ccc(S(=O)(=O)Oc2cccnc2Br)cc1 [Compound 27, 2-Bromopyridin-3-yl 4-(3-(2-chloroethyl)ureido)benzenesulfonate hydrochloride] | 16 ± 1 µM | 33 ± 1 µM | 5.5 ± 0.4 µM | 4.8 ± 0.7 µM | 4.9 ± 0.3 µM | > 50 µM | 189 ± 5 µg/mL | 30 ± 2 µM
3 | Cl.O=C(NCCCl)Nc1ccc(S(=O)(=O)Oc2cccnc2I)cc1 [Compound 28, 2-Iodopyridin-3-yl 4-(3-(2-chloroethyl)ureido)benzenesulfonate hydrochloride] | 13 ± 1 µM | 21 ± 1 µM | 3.1 ± 0.2 µM | 2.4 ± 0.4 µM | 1.8 ± 0.7 µM | 19 ± 4 µM | 37 ± 2 µg/mL | 15 ± 1 µM
4 | CC(C)c1ncccc1OS(=O)(=O)c1ccc(NC(=O)NCCCl)cc1.Cl [Compound 29, 2-Isopropylpyridin-3-yl 4-(3-(2-chloroethyl)ureido)benzenesulfonate hydrochloride] | 14 ± 1 µM | 10.5 ± 0.5 µM | 3.3 ± 0.2 µM | 2.5 ± 0.9 µM | 2.6 ± 0.9 µM | 13 ± 4 µM | 126 ± 5 µg/mL | 9.7 ± 0.5 µM
5 | CCNC(=O)Nc1ccc(S(=O)(=O)Oc2cnccc2Br)cc1.Cl [Compound 30, 4-Bromopyridin-3-yl 4-(3-ethylureido)benzenesulfonate hydrochloride] | 45 ± 4 µM | 45 ± 4 µM | 6.7 ± 0.4 µM | 3.7 ± 0.5 µM | 6 ± 2 µM | 80 ± 5 µM | 122 ± 4 µg/mL | 44 ± 3 µM
6 | CCNC(=O)Nc1ccc(S(=O)(=O)Oc2cnccc2I)cc1.Cl [Compound 31, 4-Iodopyridin-3-yl 4-(3-ethylureido)benzenesulfonate hydrochloride] | 19 ± 3 µM | 11 ± 1 µM | 5.3 ± 0.4 µM | 1.4 ± 0.4 µM | 2.2 ± 0.3 µM | 32 ± 9 µM | 165 ± 3 µg/mL | 11 ± 1 µM

Now from value to compound, other results behind:

Row | IC50 [1] | IC50 [3] | IC50 [4] | IC50 [5] | IC50 [6] | IC50 [7] | solubility at 24 h [8] | Compound | IC50 [2]
7 | 26 ± 2 µM | 9.6 ± 0.7 µM | 5.9 ± 0.7 µM | 2.4 ± 0.3 µM | 2.9 ± 0.1 µM | > 100 µM | 98 ± 7 µg/mL | CCNC(=O)Nc1ccc(S(=O)(=O)Oc2cnccc2C)cc1.Cl [Compound 32, 4-Methylpyridin-3-yl 4-(3-ethylureido)benzenesulfonate hydrochloride] | 35 ± 4 µM
8 | 24 ± 2 µM | 30 ± 1 µM | 10 ± 0.8 µM | 6 ± 1 µM | 4.1 ± 0.7 µM | 40 ± 10 µM | 124 ± 2 µg/mL | CCCNC(=O)Nc1ccc(S(=O)(=O)Oc2cnccc2Br)cc1.Cl [Compound 33, 4-Bromopyridin-3-yl 4-(3-propylureido)benzenesulfonate hydrochloride] | 40 ± 1 µM
9 | 13 ± 1 µM | 14 ± 1 µM | 5.9 ± 0.5 µM | 2.7 ± 0.5 µM | 2.1 ± 0.6 µM | > 50 µM | 130 ± 10 µg/mL | CCCNC(=O)Nc1ccc(S(=O)(=O)Oc2cnccc2I)cc1.Cl [Compound 34, 4-Iodopyridin-3-yl 4-(3-propylureido)benzenesulfonate hydrochloride] | 21 ± 2 µM
10 | 58 ± 8 µM | 39 ± 2 µM | 21 ± 2 µM | 9.2 ± 0.8 µM | 5 ± 2 µM | 16.3 ± 0.1 µM | 138 ± 2 µg/mL | CCCNC(=O)Nc1ccc(S(=O)(=O)Oc2cnccc2C)cc1.Cl [Compound 35, 4-Methylpyridin-3-yl 4-(3-propylureido)benzenesulfonate hydrochloride] | 56 ± 3 µM
